The text below walks through data of PubChem BioAssay AID236 (DTP/NCI, 2004).

Where “and” joins values, the source holds several entries; their conditions need not be identical. Identical values can stand only once. Toxic doses and inconclusive results are not listed.

The experiment has as its system AK4 lymphoid leukemia ip, C3AKF1 mice, survival. Kind of experiment: NCI In Vivo Anticancer Drug Screen. Data for tumor model AK4 Lymphoid Leukemia (intraperitoneal) in C3AKF1 (CHKRF1) mice. The settings on record: endpoint: median survival time, vehicle: saline, higher = longer survival. Here is the method: The antitumor activity of compounds was measured in mice bearing transplantable tumors. Survival or tumor size were measured and the results are expressed as the measurement made in the treated group (T) divided by the measurement made in the vehicle treated control group (C). The tumor model used in this assay is AK4 Lymphoid Leukemia (intraperitoneal) in C3AKF1 (CHKRF1) mice

[1] abbreviates: dose: 2.0 mg/kg/injection, schedule: Q01DX010 (ip).
Setting [2] is: dose: 2.5 mg/kg/injection, schedule: Q01DX010 (ip).
Where [3] appears, read: dose: 5.0 mg/kg/injection, schedule: Q01DX010 (ip).
The mark [4] stands for this setting: dose: 8.0 mg/kg/injection, schedule: Q01DX010 (ip).
Setting [5] is: dose: 10.0 mg/kg/injection, schedule: Q01DX010 (ip).
Where [6] appears, read: dose: 16.0 mg/kg/injection, schedule: Q01DX010 (ip).
The mark [7] stands for this setting: dose: 20.0 mg/kg/injection, schedule: Q01DX010 (ip).
Setting [8] is: dose: 12.5 mg/kg/injection, schedule: Q01DX010 (ip).
Where [9] appears, read: dose: 25.0 mg/kg/injection, schedule: Q01DX010 (ip).
Where [10] appears, read: dose: 1.25 mg/kg/injection, schedule: Q01DX010 (ip).
Setting [11] is: dose: 0.5 mg/kg/injection, schedule: Q01DX010 (ip).
The mark [12] stands for this setting: dose: 50.0 mg/kg/injection, schedule: Q01DX010 (ip).
Where [13] appears, read: dose: 100.0 mg/kg/injection, schedule: Q01DX010 (ip).
Where [14] appears, read: dose: 200.0 mg/kg/injection, schedule: Q01DX010 (ip).
The mark [15] stands for this setting: dose: 6.25 mg/kg/injection, schedule: Q01DX010 (ip).
The mark [16] stands for this setting: dose: 4.0 mg/kg/injection, schedule: Q01DX010 (ip).
The mark [17] stands for this setting: dose: 400.0 mg/kg/injection, schedule: Q01DX010 (ip).
The mark [18] stands for this setting: dose: 62.5 mg/kg/injection, schedule: Q01DX010 (ip).
Setting [19] is: dose: 125.0 mg/kg/injection, schedule: Q01DX010 (ip).
The mark [20] stands for this setting: dose: 250.0 mg/kg/injection, schedule: Q01DX010 (ip).

Consider `NC(Cc1ccc(N(CCCl)CCCl)cc1)C(=O)O` (stereo not drawn), for which the T/C is 150 % of control under setting [1]; 164 % of control under setting [2]; 164 % of control under setting [3]; 150 % of control under setting [4]; 158 % of control under setting [5]; 100 % of control under setting [6]. For the same molecule, the T/C under setting [7] is 117 % of control.

Consider `N=[N+]=CC(=O)OCC(N)C(=O)O` (stereo not drawn), for which the T/C (dose: 3.13 mg/kg/injection, schedule: Q01DX010 (ip)) is 122 % of control; the T/C under setting [8] is 113 % of control; the T/C under setting [9] is 100 % of control and 86 % of control.

Turning to `O=C(O)c1[nH]c(=O)[nH]c(=O)c1F`, the T/C is 105 % of control under setting [10]; 122 % of control under setting [2]; 155 % of control and 205 % of control under setting [5]; 111 % of control under setting [7].

For the molecule `CC[C@]1(O)C[C@H]2CN(CCc3c([nH]c4ccccc34)[C@@](C(=O)OC)(c3cc4c(cc3OC)N(C=O)[C@H]3[C@@](O)(C(=O)OC)[C@H](OC(C)=O)[C@]5(CC)C=CCN6CC[C@]43[C@@H]65)C2)C1`, the T/C (dose: 0.03 mg/kg/injection, schedule: Q01DX010 (ip)) is 100 % of control and 115 % of control; the T/C (dose: 0.03 mg/kg/injection, schedule: Q01DX Z (ip)) is 96 % of control and 106 % of control; the T/C (dose: 0.06 mg/kg/injection, schedule: Q01DX010 (ip)) was 90 % of control and 112 % of control; the T/C (dose: 0.06 mg/kg/injection, schedule: Q01DX Z (ip)) was 96 % of control and 106 % of control; the T/C (dose: 0.12 mg/kg/injection, schedule: Q01DX Z (ip)) was 102 % of control and 106 % of control; the T/C (dose: 0.25 mg/kg/injection, schedule: Q01DX010 (ip)) is 115 % of control. Besides, the T/C is, setting by setting: (dose: 0.25 mg/kg/injection, schedule: Q01DX Z (ip)) 102 % of control and 120 % of control; under setting [11], 93 % of control; (dose: 62.5 micrograms/kg/injection, schedule: Q01DX010 (ip)) 112 % of control.

Turning to `N#[N+]c1cnc([O-])[nH]c1=O`, the T/C under setting [10] was 100 % of control, the T/C under setting [2] was 100 % of control, the T/C under setting [3] is 100 % of control and the T/C under setting [5] is 100 % of control.

Consider `O=C(Nc1ccc(C2=NCCN2)cc1)c1ccc(C(=O)Nc2ccc(C3=NCCN3)cc2)c([N+](=O)[O-])c1`, for which the T/C by setting is: (dose: 6.0 mg/kg/injection, schedule: Q01DX010 (ip)) 150 % of control; (dose: 12.0 mg/kg/injection, schedule: Q01DX010 (ip)) 155 % of control and 210 % of control; (dose: 18.0 mg/kg/injection, schedule: Q01DX010 (ip)) 100 % of control and 240 % of control.

For `CS(=O)(=O)OCC(O)C(O)C(O)C(O)COS(C)(=O)=O` (stereo not drawn), the T/C is 112 % of control under setting [8]; 100 % of control and 105 % of control under setting [9]; 94 % of control under setting [12]; 87 % of control and 100 % of control under setting [13]; 100 % of control under setting [14].

For the molecule `O=NN(CCCl)C(=O)NCCCl`, the T/C is 168 % of control and 185 % of control under setting [15]; 160 % of control and 181 % of control under setting [8].

For `S=P(N1CCOCC1)(N1CC1)N1CC1`, the T/C under setting [2] was 94 % of control, the T/C under setting [3] is 105 % of control, the T/C under setting [5] is 100 % of control and the T/C under setting [7] was 94 % of control.

With `CC(CCC(C)OS(C)(=O)=O)OS(C)(=O)=O` (stereo not drawn), the T/C is 88 % of control under setting [1], 88 % of control under setting [16] and 94 % of control under setting [4].

On to `OC(CBr)C(O)C(O)C(O)CBr` (stereo not drawn), for which the T/C was 100 % of control and 87 % of control under setting [12]; 93 % of control and 87 % of control under setting [13]; 93 % of control and 100 % of control under setting [14]; 100 % of control under setting [17].

Regarding `Oc1cc(CN(CCCl)CCCl)c(O)cc1CN(CCCl)CCCl`, the T/C under setting [5] was 100 % of control.

`O=c1[nH]cc(F)c(=O)[nH]1`: the T/C under setting [7] was 162 % of control; the T/C (dose: 40.0 mg/kg/injection, schedule: Q01DX010 (ip)) is 112 % of control; the T/C (dose: 80.0 mg/kg/injection, schedule: Q01DX010 (ip)) is 93 % of control.

`O=C(Nc1ccc(C2=NCCN2)cc1)c1cccc(C(=O)Nc2ccc(C3=NCCN3)cc2)c1`: the T/C runs as follows: under setting [4], 115 % of control; under setting [6], 150 % of control and 165 % of control; (dose: 32.0 mg/kg/injection, schedule: Q01DX010 (ip)) 205 % of control and 210 % of control; (dose: 64.0 mg/kg/injection, schedule: Q01DX010 (ip)) 235 % of control and 245 % of control.

In the case of `O=C1C(NC(=O)C2CCCCC2)=C(N2CC2)C(=O)C(NC(=O)C2CCCCC2)=C1N1CC1`, the T/C reads like this: under setting [9], 90 % of control; under setting [12], 95 % of control and 100 % of control; under setting [13], 95 % of control and 100 % of control; under setting [14], 100 % of control and 110 % of control; under setting [17], 116 % of control.

With `CCN(CCNc1ccc(C)c2sc3cc(Cl)ccc3c(=O)c12)CC(C)O` (stereo not drawn), the T/C was 94 % of control (dose: 31.3 mg/kg/injection, schedule: Q01DX010 (ip)); 88 % of control and 94 % of control under setting [18]; 94 % of control under setting [19]; 88 % of control under setting [20].

Take `COc1cc(-c2ccc(Nc3ccccc3C(=O)O)c(OC)c2)ccc1Nc1ccccc1C(=O)O`: the T/C runs as follows: under setting [8], 112 % of control; under setting [9], 112 % of control and 122 % of control; under setting [13], 162 % of control.

Take `c1ccc(CCSc2ncnc3nc[nH]c23)cc1`: the T/C was 100 % of control under setting [18]; 100 % of control under setting [19]; 100 % of control under setting [20]; 100 % of control (dose: 500.0 mg/kg/injection, schedule: Q01DX010 (ip)).

Regarding `C[N+](C)(C)c1ncnc2nc[nH]c12`, the T/C is 100 % of control (dose: 15.0 mg/kg/injection, schedule: Q01DX010 (ip)); 116 % of control (dose: 30.0 mg/kg/injection, schedule: Q01DX010 (ip)); 111 % of control (dose: 60.0 mg/kg/injection, schedule: Q01DX010 (ip)); 88 % of control (dose: 120.0 mg/kg/injection, schedule: Q01DX010 (ip)).

Take `CC(=O)NC1=C(N2CC2)C(=O)C(NC(C)=O)=C(N2CC2)C1=O`: the T/C by setting is: under setting [11], 152 % of control; (dose: 1.0 mg/kg/injection, schedule: Q01DX010 (ip)) 152 % of control; under setting [1], 88 % of control; (dose: 125.0 micrograms/kg/injection, schedule: Q01DX010 (ip)) 100 % of control; (dose: 250.0 micrograms/kg/injection, schedule: Q01DX010 (ip)) 111 % of control; (dose: 500.0 micrograms/kg/injection, schedule: Q01DX010 (ip)) 116 % of control.

As for `C#CCN(C)Cc1ccccc1`, the T/C by setting is: under setting [12], 88 % of control; under setting [13], 88 % of control; under setting [14], 88 % of control.

For `CS(=O)(=O)OCCCCOS(C)(=O)=O`, the T/C reads like this: under setting [15], 87 % of control and 100 % of control; under setting [8], 100 % of control and 87 % of control; under setting [9], 100 % of control; under setting [12], 87 % of control and 100 % of control.

As for `C=CC(CN1CC1)OC(C)=O` (stereo not drawn), the T/C is 90 % of control and 100 % of control under setting [1]; 95 % of control and 111 % of control under setting [16]; 88 % of control and 120 % of control under setting [4]; 90 % of control under setting [6].
